The values that follow come from patent US12030875B2, “EIF4E inhibitors and uses thereof” (PIC Therapeutics, Inc., priority 2018, dated 2024).

T1 sequence (P06730 28-217): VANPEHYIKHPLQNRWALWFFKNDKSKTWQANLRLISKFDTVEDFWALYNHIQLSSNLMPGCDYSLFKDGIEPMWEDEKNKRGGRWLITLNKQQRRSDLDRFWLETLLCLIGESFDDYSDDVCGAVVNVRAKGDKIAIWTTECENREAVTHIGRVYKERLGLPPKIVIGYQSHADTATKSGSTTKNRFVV

The assay concerns the target T1, Human eIF4E (Homo sapiens, UniProt P06730).
T1 construct: Human eIF4E (aa 28-217) with a C-terminal His-tag; made in house
In words: Human eIF4E/4G2 binding assay (TR-FRET). The settings on record: eIF4E (aa 28-217) with biotin labeled 4G2 peptide. The method, boiled down:
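His-tagged human eIF4E (aa 28-217), refolded from E. coli inclusion bodies, at 82.5 nM working stock; compounds in 10-point 2-fold DMSO series, preincubated 15 min at RT in 50 mM NaPi pH 6.5, 50 mM KCl, 1 mM DTT. Biotin-4G2 peptide added, 15 min, then Eu-streptavidin/APC-anti-His, 20 min; normalized 665/615 nm TR-FRET signal; IC50 by curve fit.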
With `CCCC(CNc1nc(-c2ccc(Oc3ccccc3)cc2)c(-c2ccccc2)s1)C(=O)O` (stereo not drawn) [Compound I-168], the IC50 is < 5 µM.

On to `CC(CNc1nc(-c2ccc(-c3cnco3)cc2)cs1)C(=O)O` (stereo not drawn) [Compound I-26], for which the half-maximal inhibitory concentration (IC50) is > 25 µM.

In the case of `O=C(O)C1CN(c2nc(-c3ccc(-c4ccc(F)cc4)cc3)c(-c3cncnc3)s2)CCO1` (stereo not drawn) [Compound I-141], the IC50 is > 25 µM.

Turning to `CC(CC(=O)O)Nc1nc(-c2ccc(Oc3ccccc3)cc2)c(-c2cncnc2)s1` (stereo not drawn) [Compound I-173], the IC50 was > 25 µM.

Regarding `O=C(O)C1(CNc2nc(-c3ccc(-c4cnco4)cc3)c(-c3cccc4[nH]ccc34)s2)CC1` [Compound I-47], the IC50 was > 25 µM.

For `O=C(O)C1CC(CNc2nc(-c3ccc(-c4ccc(F)cc4)cc3)cs2)C1` (stereo not drawn) [Compound I-126], the IC50 was > 25 µM.

Take `O=C(O)CC1CCCN1c1nc(-c2ccc(Oc3ccccc3)cc2)c(-c2cncnc2)s1` (stereo not drawn) [Compound I-187]: the IC50 was > 25 µM.

For `O=C(O)CC1CCCN1c1nc(-c2ccc(Oc3ccccc3)cc2)c(-c2cccc3[nH]ccc23)s1` (stereo not drawn) [Compound I-189], the IC50 was 5 to 25 µM.

In the case of `O=C(O)CC1CCCN1c1nc(-c2ccc(-c3cnco3)cc2)c(-c2cncnc2)s1` (stereo not drawn) [Compound I-37], the IC50 was > 25 µM.

Turning to `CC(C)(CNc1nc(-c2ccc(Oc3ccccc3)cc2)c(-c2cccnc2)s1)C(=O)O` [Compound I-156], the IC50 is > 25 µM.

As to `CC1(C(=O)O)CCCN(c2nc(-c3ccc(-c4cnco4)cc3)c(-c3ccccc3)s2)C1` (stereo not drawn) [Compound I-60], the IC50 is > 25 µM.

Turning to `O=C(O)C1CN(c2nc(-c3ccc(Oc4ccccc4)cc3)c(-c3cccc4[nH]ccc34)s2)CCO1` (stereo not drawn) [Compound I-216], the IC50 was > 25 µM.

For `O=C(O)C1CC(CNc2nc(-c3ccc(Oc4ccccc4)cc3)c(-c3cccc4[nH]ccc34)s2)C1` (stereo not drawn) [Compound I-204], the IC50 was in the range of 5 to 25 µM.

For the molecule `O=C(O)CC1CCCN1c1nc(-c2ccc(-c3ccc(F)cc3)cc2)c(-c2cccnc2)s1` (stereo not drawn) [Compound I-113], the IC50 is > 25 µM.

Consider `O=C(O)C1CN(c2nc(-c3ccc(-c4ccc(F)cc4)cc3)c(-c3cccnc3)s2)CCO1` (stereo not drawn) [Compound I-142], for which the IC50 is > 25 µM.

Regarding `CC(C)(CNc1nc(-c2ccc(Oc3ccccc3)cc2)cs1)C(=O)O` [Compound I-153], the IC50 was > 25 µM.

Consider `CC1(C(=O)O)CCCN(c2nc(-c3ccc(-c4cnco4)cc3)c(-c3cncnc3)s2)C1` (stereo not drawn) [Compound I-61], for which the IC50 was > 25 µM.

For the molecule `CCCC(CNc1nc(-c2cccnc2)c(-c2ccc(-c3cnco3)cc2)s1)C(=O)O` (stereo not drawn) [Compound I-20], the IC50 was > 25 µM.

Turning to `O=C(O)C1CN(c2nc(-c3ccc(-c4cnco4)cc3)c(-c3cccnc3)s2)C1` [Compound I-11], the IC50 is > 25 µM.

For the molecule `O=C(O)C1(CNc2nc(-c3ccc(-c4ccc(F)cc4)cc3)cs2)CC1` [Compound I-120], the IC50 was > 25 µM.

With `O=C(O)C1COCCN1c1nc(-c2ccc(-c3ccc(F)cc3)cc2)c(-c2ccccc2)s1` (stereo not drawn) [Compound I-231], the IC50 is < 5 µM.

On to `CC1(C(=O)O)CN(c2nc(-c3ccc(-c4cnco4)cc3)c(-c3cccnc3)s2)C1` [Compound I-15], for which the IC50 is > 25 µM.

On to `CC(C)C(CC(=O)O)Nc1nc(-c2ccc(Oc3ccccc3)cc2)c(-c2cccnc2)s1` (stereo not drawn) [Compound I-151], for which the IC50 was > 25 µM.

As for `O=C(O)C1CN(c2nc(-c3ccc(-c4ccc(F)cc4)cc3)c(C(F)(F)F)s2)CCO1` (stereo not drawn) [Compound I-239], the IC50 lay within 5 to 25 µM.

Regarding `CC1(C(=O)O)CCCN(c2nc(-c3ccc(-c4ccc(F)cc4)cc3)c(-c3cncnc3)s2)C1` (stereo not drawn) [Compound I-145], the IC50 was > 25 µM.

Consider `O=C(O)C1(CNc2nc(-c3ccc(Oc4ccccc4)cc3)c(-c3cccnc3)s2)CC1` [Compound I-198], for which the IC50 is > 25 µM.

`O=C(O)C1CCN(c2nc(-c3ccc(-c4ccc(F)cc4)cc3)cs2)C1` (stereo not drawn) [Compound I-115]: the IC50 was > 25 µM.

As to `CC(C)(CNc1nc(-c2ccc(-c3cnco3)cc2)c(-c2cccnc2)s1)C(=O)O` [Compound I-7], the IC50 is > 25 µM.

Regarding `O=C(O)C1CCCN(c2nc(-c3ccc(Oc4ccccc4)cc3)c(-c3cccc4[nH]ccc34)s2)C1` (stereo not drawn) [Compound I-185], the IC50 was < 5 µM.

As for `CC(CC(=O)O)Nc1nc(-c2ccc(-c3ccc(F)cc3)cc2)c(-c2ccccc2)s1` (stereo not drawn) [Compound I-95], the IC50 lay in the range of 5 to 25 µM.

Regarding `CC(C)(CNc1nc(-c2ccc(-c3ccc(F)cc3)cc2)c(-c2ccccc2)s1)C(=O)O` [Compound I-72], the IC50 was < 5 µM.

`CC1(C(=O)O)CN(c2nc(-c3ccc(-c4ccc(F)cc4)cc3)c(Br)s2)C1` [Compound I-82]: the concentration for half-maximal inhibition (IC50) fell in the range of 5 to 25 µM.

Consider `CC(C)(CNc1nc(-c2ccc(Oc3ccccc3)cc2)c(-c2ccccc2)s1)C(=O)O` [Compound I-154], for which the IC50 is < 5 µM.

As for `O=C(O)C1CN(c2nc(-c3ccc(Oc4ccccc4)cc3)c(-c3cccnc3)s2)C1` [Compound I-160], the IC50 is > 25 µM.

Consider `O=C(O)C1CCN(c2nc(-c3ccc(-c4cnco4)cc3)c(-c3cccc4[nH]ccc34)s2)CC1` [Compound I-55], for which the IC50 was > 25 µM.

Regarding `CC1(C(=O)O)CCCN(c2nc(-c3ccc(-c4ccc(F)cc4)cc3)c(-c3cccnc3)s2)C1` (stereo not drawn) [Compound I-146], the IC50 was in the range of 5 to 25 µM.

In the case of `O=C(O)C1CCN(c2nc(-c3ccc(-c4cnco4)cc3)c(-c3ccccc3)s2)CC1` [Compound I-52], the IC50 is > 25 µM.

Take `O=C(O)C1CCCN(c2nc(-c3ccc(-c4ccc(F)cc4)cc3)c(C3CC3)s2)C1` (stereo not drawn) [Compound I-232]: the IC50 was < 5 µM.

`CC(C)(CNc1nc(-c2ccc(-c3cnco3)cc2)c(-c2ccccc2)s1)C(=O)O` [Compound I-5]: the IC50 was > 25 µM.

The IC50 is the concentration at which inhibition is half-maximal.
